Results on one molecule are retold here after patent publication US12707888B2, “Asymmetric donor-acceptor molecular dyes” (THE UNIVERSITY OF NORTH CAROLINA AT CHARLOTTE, priority 2019, dated 2026).

Data set [1] in a line: Lippert-Mataga analysis of excited state dipole moments. The format is physicochemical. The conditions noted are these: semi-empirically calculated using the Lippert-Mataga equation. The method, then:
The calculated HOMOs/LUMOs indicate that the strong solvatofluorochromism arises from an ICT mechanism, whereby the ground state has significant electron localization on the donor side of the molecule whereas the electron density shifts to the acceptor moiety in the excited state. To more directly quantify the strong ICT character of the TTz dyes, the excited-state dipole moments were calculated using the Lippert-Mataga equation (Eq 1):
[formula] where va and vf are the wavenumbers of the absorption and emission peaks in cm^−1, respectively; μ* and μ are the excited state and ground state dipoles, respectively; ϵ0 is the vacuum permittivity, h is Planck's constant, c is the speed of light, a is the Onsager cavity radius, Δf is the orientation polarizability, ϵ is the relative permittivity, and η is the refractive index. The dipoles were calculated using Spartan 2016 software, and the Onsager cavity radii were calculated using Gaussian '09 software.
FIGS. 9A and 9B show the Stokes shift of Bu2N-TTz-Py and Ph2N-TTz-COOH versus Δf, respectively. From the slopes of the Lippert-Mataga plots, the change between the dipole moments of the ground and excited states can be determined. Even though the Lippert-Mataga equation assumes no specific solvent-solute interactions (e.g. hydrogen bonding) and ignores solute polarizability, high degrees of linearity are apparent; and therefore, the estimations of the excited state dipoles are regarded as reliable. […] Perhaps owing to the minimal solvent interactions and rapid vibrational relaxation, the estimated changes in dipole moments (Δμ) are remarkably large (Table IV). […] Therefore, it is expected that these asymmetric TTzs dyes would be well suited to give high sensitivity in sensing applications whereby small changes in the polarity of the environment can lead to large differences in the wavelengths of fluorescence.

Data set [2] in a line: UV-Vis absorbance, fluorescence emission and quantum yield in organic solvents. The format is physicochemical. The method, then: The absorption, emission, and fluorescence lifetime characteristics of all four TTz dyes were recorded in a variety of organic solvents (FIGS. 7A-7B, Table of FIG. 8). Additionally, HOMO/LUMO levels of the TTz dyes were determined computationally in Spartan 16 using B3LYP/6-31g. Molar absorptivities of all the TTz dyes ranged from 13,000 to 86,000 cm^−1M^−1. […] However, the peak absorbance of Bu2N-TTz-Py in DCM was slightly red-shifted as compared to that of Ph2N-TTz-Py (λmax, abs=429 nm vs λmax, abs=422 nm in DCM), which is attributed to the diphenylamine moiety having weaker donor characteristics. […] Due to the low estimated ground state dipole moments of the TTz dyes (μ=6-8 D), their wavelengths of absorbance remained relatively solvent independent (st. dev.=±11 nm).
4-pyridine carboxaldehyde, 4-(dibutylamino)benzaldehyde, 4-(diphenylamino)benzaldehyde, terephthalaldehyde, dithiooxamide, and all solvents used for spectroscopic measurements were purchased from Sigma-Aldrich and used without further purification. ^1H and ^13CNMR measurements were obtained with either a JEOL 300 MHz NMR or a JEOL 500 MHz NMR. High resolution mass spectra were obtained using a Thermo Fisher Scientific MSQ Plus Single Quadrupole Mass Spectrometer. Solution-state UV-Vis spectra were collected on a Cary 300 UV-Vis spectrophotometer. Time-resolved measurements were taken on a Jobin Yvon-Spex Fluorolog equipped with a 389 nm diode laser for time-resolved PL decay measurements. Igor Pro 6.3 software was used to fit PL(t) decay data to single/multiple exponential decays. Quantum yields were calculated using 9,10-diphenylanthracene as a reference (quantum yield [ΦF] in cyclohexane=0.97).^40-41 Density functional theory (DFT) calculations were performed with Spartan computational software using B3LYP^42-43 density functional and 6-31G*^44 basis set. Temperature studies were conducted using a 10 μM Bu2N-TTz-Py MeTHF solution placed inside of a Norrell 502 NMR tube and sequentially submerged in the following liquid N2 baths:octanol (−16° C.), acetonitrile (−41° C.), acetone (−94° C.), pentane (−131° C.), MeTHF (−136° C.), and liquid N2 itself (−196° C.). The phosphorescence spectrum of Bu2N-TTz-Py (see S2) was collected similarly at −196° C. by pumping with 389 nm light while inside a liquid nitrogen bath and then probing the emission within 2 sec of removing from the bath. Human embryonic kidney cells (HEK 293T) were a kind gift from Prof. Bryan Dickinson, and Mouse macrophage J774A.1 cells were a kind gift from Prof. Deborah Nelson at the University of Chicago. Cells were cultured in Dulbecco's Modified Eagle's Medium (Invitrogen Corporation, USA) containing 10% heat inactivated Fetal Bovine Serum (FBS) (Invitrogen Corporation, USA), 100 U/mL penicillin, and 100 μg/mL streptomycin. Cells were maintained at 37° C. under 5% CO2.

The next data set concerns HEK 293T cells. Description: Photostability under continuous illumination in cells. The format is cell-based, Human. As for the experimental part: FIG. 12B details photostability of Bu2N-TTz-Py and VF2.1.Cl in HEK 293T cells (illuminated using λ=440 nm at […]) and their representative pseudo-gray scale images under continuous illumination at wavelength of maximum excitation. Error bars a/b represent the standard error of mean (S.E.M.) for 3 independent experiments, n=12 total cells. Scale bar=10 μm.
Microscopy. Imaging was carried out on an IX83 inverted microscope (Olympus Corporation of the Americas, Center Valley, PA, USA) using 100×, 1.4 NA, DIC oil immersion objective (PLAPON, Olympus) and an Evolve Delta 512 EMCCD camera (Photometrics, USA). Filter wheel, shutter, and CCD camera were controlled using Metamorph premier Ver 7.8.12.0 (Molecular Devices, LLC, USA). For photostability studies, HEK 293T cells were labeled with 500 nM Bu2N-TTz-Py and illuminated continuously with ~5 W cm^−2 power light source, periodically acquiring images at 1 min interval. Bu2N-TTz-Py channel images were obtained using 480/20 bandpass excitation filter, 575/40 bandpass emission filter and 89016 dichroic. VF2.1.Cl channel images were obtained using 500/20 bandpass excitation filter, 535/40 bandpass emission filter and 69002 dichroic. For CellMask™ red, images were obtained using the 640/30 bandpass excitation filter, 705/72 bandpass emission filter and 89016 dichroic.

Turning to `CCCCN(CCCC)c1ccc(-c2nc3sc(-c4ccncc4)nc3s2)cc1` [Bu2N-TTz-Py, 2-(N,N-dibutyl-4-aminophenyl)-5-(4-pyridyl) thiazolo[5,4-d]thiazole], in data set [1], the “Change in Dipole Δμ” value is recorded as 15.9 D and the “Excited State Dipole μ*” value is listed as 24.3 D. Moreover, the “quantum yield ΦMeOH” value in data set [2] (MeOH, reference 9,10-diphenylanthracene) amounted to 0.04. Also, the “QY in aqueous environments” value in data set [2] (aqueous environments) is reported as “low QY”. Besides, in data set [2] (hex, reference 9,10-diphenylanthracene), the “quantum yield Φhex” value was 0.93. The “peak absorbance λmax, abs” value in data set [2] (in DCM) was found to be 429 nm. Moreover, the “molar absorptivity ε” value in the data set with HEK 293T cells (@ 440 nm LED) was 15,000-20,000 cm^−1 M^−1. Further, the “decay of fluorescence intensity” value with HEK 293T cells (in the same amount of time (approx. 7.5 minutes), I=5 W cm^−2, 440 nm LED) was “less than 10%”.
